The target of test [1] is T1, Streptokinase A (Streptococcus pyogenes serotype M1, UniProt P10520).
T1 sequence (P10520 whole entry): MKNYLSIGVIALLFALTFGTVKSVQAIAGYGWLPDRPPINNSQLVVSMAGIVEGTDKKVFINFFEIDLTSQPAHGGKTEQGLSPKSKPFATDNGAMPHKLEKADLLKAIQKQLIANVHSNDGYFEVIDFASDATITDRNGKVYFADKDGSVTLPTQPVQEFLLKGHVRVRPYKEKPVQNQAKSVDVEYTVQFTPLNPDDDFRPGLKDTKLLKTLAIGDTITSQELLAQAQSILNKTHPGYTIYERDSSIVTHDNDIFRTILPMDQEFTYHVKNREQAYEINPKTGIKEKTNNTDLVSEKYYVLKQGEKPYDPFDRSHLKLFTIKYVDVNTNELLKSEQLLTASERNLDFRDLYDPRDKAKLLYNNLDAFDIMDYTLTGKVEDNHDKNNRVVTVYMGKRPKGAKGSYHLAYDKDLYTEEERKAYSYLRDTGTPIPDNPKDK
Nature of the test: viability-normalized secreted streptokinase activity reduction – plasminogen activation absorbance, OD405, dose response (AID 1914).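 Further: secreted streptokinase activity via plasminogen activation per viability signal from cell pellet.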 Type of test: functional, Streptococcus pyogenes M1 GAS.

The target in test [2] is T2, Calpain-2 catalytic subunit (Sus scrofa, UniProt P43367).
T2 sequence (P43367 whole entry): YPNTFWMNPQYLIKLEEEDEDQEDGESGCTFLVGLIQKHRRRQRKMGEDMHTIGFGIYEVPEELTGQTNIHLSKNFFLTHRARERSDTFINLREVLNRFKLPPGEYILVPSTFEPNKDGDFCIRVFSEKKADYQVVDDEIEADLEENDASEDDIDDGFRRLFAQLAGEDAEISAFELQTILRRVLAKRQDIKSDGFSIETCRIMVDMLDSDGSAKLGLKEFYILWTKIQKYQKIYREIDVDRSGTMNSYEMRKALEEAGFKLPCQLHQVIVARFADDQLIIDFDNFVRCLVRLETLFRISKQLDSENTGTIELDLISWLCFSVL
Description: m-calpain protease blockers, concentration series – biochemical, fluorogenic peptide substrate, dose response (AID 1420). Type of test: functional.

Test [3] has as its system Streptococcus. Nature of the test: GAS UMAA2166 growth inhibition – luminescence, BacTiterGlo, counter-screen for streptokinase expression inhibitor project, dose response (AID 1915).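 Further: potency for reduction of bacterial viability or growth.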 Type of test: functional, organism-based.
In test [4] the target is Heat shock protein HSP 90-alpha (Homo sapiens, UniProt P07900). Type of test: functional, organism-based.
Test [5] has as its system Vero. Description: cells. Type of test: functional. The settings on record: Chlorocebus sabaeus.
Test [6] deals with Candida albicans. Description: fluconazole-resistant Candida strain growth inhibitors – CaCi-8 strain, dry powder, set 4, dose response (AID 488950). Type of test: functional, organism-based.
Test [7] deals with Candida albicans. Description: C. albicans growth inhibition with fluconazole – CaCi-2 strain, Alamar Blue, dry powder, set 4, dose response (AID 488943). Type of test: functional, organism-based. In general terms: Resazurin is reduced to fluorescent resorufin, in cell work by metabolically active cells.
Test [8] addresses T3, Sentrin-specific protease 8 (Homo sapiens, UniProt Q96LD8).
T3 sequence (Q96LD8 whole entry): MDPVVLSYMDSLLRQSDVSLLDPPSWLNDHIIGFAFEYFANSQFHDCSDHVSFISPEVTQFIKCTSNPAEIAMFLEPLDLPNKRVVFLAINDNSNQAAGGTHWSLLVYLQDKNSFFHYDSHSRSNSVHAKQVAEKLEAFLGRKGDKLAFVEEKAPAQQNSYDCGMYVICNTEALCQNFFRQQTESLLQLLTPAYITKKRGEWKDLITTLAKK
Description: inhibition of human SENP8 cleavage activity – biochemical, luminescence, SAR follow-up (AID 504501). Type of test: functional.

The target in test [9] is T4, Caspase-3 (Homo sapiens, UniProt P42574).
T4 sequence (P42574 whole entry): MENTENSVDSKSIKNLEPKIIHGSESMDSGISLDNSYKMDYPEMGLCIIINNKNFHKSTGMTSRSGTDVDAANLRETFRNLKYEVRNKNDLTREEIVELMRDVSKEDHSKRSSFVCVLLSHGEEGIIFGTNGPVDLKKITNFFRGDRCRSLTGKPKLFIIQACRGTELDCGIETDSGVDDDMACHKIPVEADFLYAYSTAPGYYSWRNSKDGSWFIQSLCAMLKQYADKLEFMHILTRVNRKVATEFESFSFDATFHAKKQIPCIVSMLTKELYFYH
Description: SAR Analysis of small molecule inhibitors of Sentrin-specific proteases (SENPs) using a Caspase-3 Selectivity assay. [Related pubchem assays (depositor defined):AID2540, AID2599, AID434973, AID489001]. Type of test: functional.

Test [10] concerns the target T5, Sentrin-specific protease 6 (Homo sapiens, UniProt Q9GZR1).
T5 sequence (Q9GZR1 whole entry): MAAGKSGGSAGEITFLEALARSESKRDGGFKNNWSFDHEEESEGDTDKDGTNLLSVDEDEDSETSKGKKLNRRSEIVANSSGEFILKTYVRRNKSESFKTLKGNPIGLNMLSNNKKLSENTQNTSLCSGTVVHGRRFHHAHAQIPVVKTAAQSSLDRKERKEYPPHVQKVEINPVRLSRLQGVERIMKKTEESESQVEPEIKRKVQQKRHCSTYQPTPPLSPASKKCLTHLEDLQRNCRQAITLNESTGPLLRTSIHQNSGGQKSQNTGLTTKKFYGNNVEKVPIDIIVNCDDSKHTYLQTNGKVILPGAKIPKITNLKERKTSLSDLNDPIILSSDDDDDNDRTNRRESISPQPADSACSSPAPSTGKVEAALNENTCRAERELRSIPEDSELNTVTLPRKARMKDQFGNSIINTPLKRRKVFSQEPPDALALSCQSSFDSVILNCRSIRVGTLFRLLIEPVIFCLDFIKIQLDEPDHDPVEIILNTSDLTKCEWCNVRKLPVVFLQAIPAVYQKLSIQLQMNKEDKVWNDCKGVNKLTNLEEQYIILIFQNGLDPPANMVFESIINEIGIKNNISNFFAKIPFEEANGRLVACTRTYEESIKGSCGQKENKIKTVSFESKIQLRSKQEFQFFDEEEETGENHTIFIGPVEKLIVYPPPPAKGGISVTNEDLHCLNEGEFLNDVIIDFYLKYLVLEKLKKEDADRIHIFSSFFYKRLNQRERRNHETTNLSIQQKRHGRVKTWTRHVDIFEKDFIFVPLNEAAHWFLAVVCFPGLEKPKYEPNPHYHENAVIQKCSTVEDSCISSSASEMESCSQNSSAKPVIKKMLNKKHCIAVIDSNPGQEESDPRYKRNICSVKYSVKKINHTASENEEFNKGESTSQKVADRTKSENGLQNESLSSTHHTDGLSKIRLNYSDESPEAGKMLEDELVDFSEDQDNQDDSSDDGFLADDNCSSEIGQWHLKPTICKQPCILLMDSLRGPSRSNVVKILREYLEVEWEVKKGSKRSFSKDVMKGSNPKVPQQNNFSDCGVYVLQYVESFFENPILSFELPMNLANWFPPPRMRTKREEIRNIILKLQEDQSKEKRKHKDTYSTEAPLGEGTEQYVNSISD
Nature of the test: SAR Analysis of small molecule inhibitors of Sentrin-specific protease 6 (SENP6) using a Luminescent assay. [Related pubchem assays (depositor defined):AID2582, AID2599]. Type of test: functional.

For test [11], the target named is T6, Sentrin-specific protease 7 (Homo sapiens, UniProt Q9BQF6).
T6 sequence (Q9BQF6 whole entry): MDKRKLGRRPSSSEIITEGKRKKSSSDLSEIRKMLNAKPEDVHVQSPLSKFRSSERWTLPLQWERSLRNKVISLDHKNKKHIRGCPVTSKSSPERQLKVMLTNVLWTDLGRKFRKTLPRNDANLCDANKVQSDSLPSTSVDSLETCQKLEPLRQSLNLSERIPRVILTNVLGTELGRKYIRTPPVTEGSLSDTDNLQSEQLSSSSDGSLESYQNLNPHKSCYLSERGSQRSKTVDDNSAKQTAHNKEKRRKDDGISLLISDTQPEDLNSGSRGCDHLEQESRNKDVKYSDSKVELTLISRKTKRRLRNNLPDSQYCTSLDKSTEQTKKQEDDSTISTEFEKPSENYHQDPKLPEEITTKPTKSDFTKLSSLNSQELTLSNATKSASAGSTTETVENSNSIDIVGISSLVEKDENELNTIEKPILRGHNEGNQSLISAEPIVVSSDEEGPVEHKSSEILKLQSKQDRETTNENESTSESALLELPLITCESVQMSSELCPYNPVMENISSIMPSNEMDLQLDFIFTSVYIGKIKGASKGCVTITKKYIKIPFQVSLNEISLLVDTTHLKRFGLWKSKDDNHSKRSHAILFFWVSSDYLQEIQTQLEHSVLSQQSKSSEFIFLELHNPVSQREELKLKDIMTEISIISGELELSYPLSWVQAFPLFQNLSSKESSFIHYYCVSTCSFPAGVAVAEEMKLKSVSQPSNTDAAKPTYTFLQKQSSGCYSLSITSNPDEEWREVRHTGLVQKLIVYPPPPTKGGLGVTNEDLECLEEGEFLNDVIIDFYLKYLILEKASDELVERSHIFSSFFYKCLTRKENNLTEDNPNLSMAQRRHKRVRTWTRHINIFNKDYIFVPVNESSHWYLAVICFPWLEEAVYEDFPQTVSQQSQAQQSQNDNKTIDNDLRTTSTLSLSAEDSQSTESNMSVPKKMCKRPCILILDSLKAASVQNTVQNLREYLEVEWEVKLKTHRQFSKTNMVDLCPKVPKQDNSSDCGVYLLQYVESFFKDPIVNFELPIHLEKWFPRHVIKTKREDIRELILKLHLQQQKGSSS
Description: inhibition of human SENP7 cleavage activity – biochemical, luminescence, SAR follow-up (AID 504497). Type of test: functional.

The test system of test [12] is Streptococcus sp. 'group A'. Description: Streptococcus pyogenes SK(-)GAS viability under kanamycin – luminescence, BacTiterGlo, confirmation, counter-screen for streptokinase expression inhibitor project, dose response (AID 1900). Type of test: functional, organism-based. For orientation: The purpose of a counterscreen is to sort out artefacts and off-target activity.

Test [13] addresses T7, Cysteine protease ATG4B (Homo sapiens, UniProt Q9Y4P1).
T7 sequence (Q9Y4P1 whole entry): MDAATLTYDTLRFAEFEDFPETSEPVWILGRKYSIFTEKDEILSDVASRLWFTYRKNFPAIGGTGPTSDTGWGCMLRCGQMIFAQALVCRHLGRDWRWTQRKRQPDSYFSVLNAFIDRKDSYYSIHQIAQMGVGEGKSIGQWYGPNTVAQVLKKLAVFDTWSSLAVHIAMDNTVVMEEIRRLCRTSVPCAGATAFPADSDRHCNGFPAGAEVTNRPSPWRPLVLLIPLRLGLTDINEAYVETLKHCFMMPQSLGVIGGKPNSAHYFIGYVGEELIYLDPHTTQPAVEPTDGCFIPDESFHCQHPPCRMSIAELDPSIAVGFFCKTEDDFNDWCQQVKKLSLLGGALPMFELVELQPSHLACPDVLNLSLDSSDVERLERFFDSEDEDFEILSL
Type of test: functional.

For test [14], the target named is Phospholipase A2 (Homo sapiens, UniProt P04054). Type of test: functional.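 Further: confirmatory dose-response counterscreen on phospholipase A2, testing hits that came from an ultra-high-throughput screen for ATG4B inhibitors.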
Sequence of Phospholipase A2 (P04054 whole entry): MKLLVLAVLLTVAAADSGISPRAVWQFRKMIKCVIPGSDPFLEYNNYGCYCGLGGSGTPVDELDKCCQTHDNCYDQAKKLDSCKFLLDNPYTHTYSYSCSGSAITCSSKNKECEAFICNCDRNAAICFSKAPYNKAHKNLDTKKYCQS
In test [15] the target is T8, Fatty acid synthase (Homo sapiens, UniProt P49327). Description: inhibition of human FAS-TE enzyme activity – biochemical, endpoint fluorescence intensity, uHTS hits, dose response (AID 624327).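 Further: fluorescence from hydrolysis of an O-methyl fluorescein acyl ester substrate by the enzyme.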 Type of test: functional.
T8 sequence (P49327 whole entry): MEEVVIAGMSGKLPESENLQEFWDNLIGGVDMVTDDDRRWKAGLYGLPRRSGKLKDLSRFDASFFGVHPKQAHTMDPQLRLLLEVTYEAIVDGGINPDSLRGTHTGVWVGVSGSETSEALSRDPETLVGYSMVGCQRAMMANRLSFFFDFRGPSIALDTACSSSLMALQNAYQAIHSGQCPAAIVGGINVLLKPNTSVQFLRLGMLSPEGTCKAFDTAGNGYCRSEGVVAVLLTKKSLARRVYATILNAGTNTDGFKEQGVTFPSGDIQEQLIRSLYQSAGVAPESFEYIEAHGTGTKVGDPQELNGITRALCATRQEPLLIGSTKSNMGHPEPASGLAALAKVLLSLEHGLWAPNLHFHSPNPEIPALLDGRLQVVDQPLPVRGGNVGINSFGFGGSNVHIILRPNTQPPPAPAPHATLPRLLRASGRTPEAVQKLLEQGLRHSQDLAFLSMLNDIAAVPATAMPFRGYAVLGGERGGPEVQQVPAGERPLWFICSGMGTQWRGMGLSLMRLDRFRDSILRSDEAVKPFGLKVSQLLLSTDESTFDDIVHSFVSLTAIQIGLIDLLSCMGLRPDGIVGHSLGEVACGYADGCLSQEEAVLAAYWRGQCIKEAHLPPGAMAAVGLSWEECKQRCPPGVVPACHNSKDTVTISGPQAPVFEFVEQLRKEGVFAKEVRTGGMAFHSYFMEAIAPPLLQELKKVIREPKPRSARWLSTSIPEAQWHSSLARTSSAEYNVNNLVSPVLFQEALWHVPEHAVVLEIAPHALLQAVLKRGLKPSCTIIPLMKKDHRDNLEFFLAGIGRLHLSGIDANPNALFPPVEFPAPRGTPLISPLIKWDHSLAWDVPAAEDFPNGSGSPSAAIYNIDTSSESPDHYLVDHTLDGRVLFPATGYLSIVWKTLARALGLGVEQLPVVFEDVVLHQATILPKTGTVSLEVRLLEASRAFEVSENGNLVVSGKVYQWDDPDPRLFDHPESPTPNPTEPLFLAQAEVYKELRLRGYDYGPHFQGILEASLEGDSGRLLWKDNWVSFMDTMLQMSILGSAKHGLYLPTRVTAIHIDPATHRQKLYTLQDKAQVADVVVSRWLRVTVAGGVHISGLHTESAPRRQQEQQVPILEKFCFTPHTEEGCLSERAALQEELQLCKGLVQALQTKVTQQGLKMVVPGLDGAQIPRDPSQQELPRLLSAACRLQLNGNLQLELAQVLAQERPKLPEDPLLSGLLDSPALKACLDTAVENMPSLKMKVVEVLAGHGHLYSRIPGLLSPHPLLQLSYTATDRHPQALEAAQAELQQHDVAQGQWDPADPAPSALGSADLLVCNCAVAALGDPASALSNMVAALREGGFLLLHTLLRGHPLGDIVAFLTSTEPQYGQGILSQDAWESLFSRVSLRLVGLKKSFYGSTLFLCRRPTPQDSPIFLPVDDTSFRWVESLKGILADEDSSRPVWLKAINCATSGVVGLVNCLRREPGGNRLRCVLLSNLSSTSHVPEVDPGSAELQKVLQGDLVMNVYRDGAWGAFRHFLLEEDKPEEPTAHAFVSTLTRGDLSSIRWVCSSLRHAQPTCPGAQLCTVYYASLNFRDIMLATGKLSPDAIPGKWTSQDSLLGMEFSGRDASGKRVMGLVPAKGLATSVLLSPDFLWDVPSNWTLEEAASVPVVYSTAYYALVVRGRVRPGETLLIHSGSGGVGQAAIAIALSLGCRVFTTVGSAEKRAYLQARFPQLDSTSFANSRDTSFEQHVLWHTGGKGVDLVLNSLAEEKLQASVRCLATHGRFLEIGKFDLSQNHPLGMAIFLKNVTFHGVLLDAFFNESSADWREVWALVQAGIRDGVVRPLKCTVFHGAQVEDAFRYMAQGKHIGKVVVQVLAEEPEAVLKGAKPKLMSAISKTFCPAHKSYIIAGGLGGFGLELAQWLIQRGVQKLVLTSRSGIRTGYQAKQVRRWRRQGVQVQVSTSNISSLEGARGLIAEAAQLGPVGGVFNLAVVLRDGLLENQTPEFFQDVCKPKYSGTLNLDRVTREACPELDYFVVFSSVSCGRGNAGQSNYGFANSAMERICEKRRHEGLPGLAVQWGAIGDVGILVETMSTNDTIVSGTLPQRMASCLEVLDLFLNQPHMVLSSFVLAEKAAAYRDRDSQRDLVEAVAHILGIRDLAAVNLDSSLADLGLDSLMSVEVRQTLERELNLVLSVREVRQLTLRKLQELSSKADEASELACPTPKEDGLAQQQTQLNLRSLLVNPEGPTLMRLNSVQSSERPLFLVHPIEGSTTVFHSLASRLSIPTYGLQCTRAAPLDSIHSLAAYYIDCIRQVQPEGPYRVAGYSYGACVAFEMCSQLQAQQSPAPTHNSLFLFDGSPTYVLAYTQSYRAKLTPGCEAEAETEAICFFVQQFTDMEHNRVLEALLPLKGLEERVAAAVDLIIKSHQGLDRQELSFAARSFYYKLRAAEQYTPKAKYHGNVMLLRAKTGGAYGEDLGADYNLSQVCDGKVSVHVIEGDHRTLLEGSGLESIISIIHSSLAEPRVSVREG
The target in test [16] is T8, Fatty acid synthase. Nature of the test: inhibition of human FAS-TE enzyme activity – biochemical, kinetic fluorescence intensity, dose response (AID 624326).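 Further: rate of fluorescence rise from hydrolysis of a fluorogenic O-methyl fluorescein ester substrate.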 Type of test: functional.

The structures appear in SMILES notation. Activity calls are given as the source filed them.

For the compound `CCCc1ccc(Oc2c[nH]nc2-c2ccc(O)c(C)c2O)cc1`, the figures for the EC50 in [1] and in [3] were > 150 µM (not active) and 8.83 µM (active), respectively. Besides, the IC50 (as a rule, the concentration at which inhibition is half-maximal) in test [2] is 38.2 µM (not active). The AC50 (commonly the concentration giving half of the maximal activity seen) in [4] is 3.08 µM (active). The 50% cytotoxic concentration (CC50) (in general, the concentration at which the toxic effect on the cells reaches its halfway point) in test [5] is > 25 µM (active).
`COc1ccc(OC)c2c(C)cc(N3CCN(C(=O)c4ccc(Cl)cc4)CC3)nc12`: the AC50 in test [6] is 8.32 µM (active); in [7], 9.36 µM (active).
`COC(=O)c1ccc(NC(=O)C(=O)c2c[nH]c3ccccc23)cc1`: the IC50 in test [8], in [9], in [10] and in [11] was > 99 µM (inactive) in each case.
For the compound `O=C1NC(=O)/C(=C\c2ccccc2OCc2ccccc2)S1`, the figures for the EC50 in test [12], in [1] and in test [3] were 16.4 µM (active), 37.6 µM (active) and 88.8 µM (active), respectively. Also, the IC50 in [13] is 10.7 µM (active); in test [14], 8.29 µM (active).
For the compound `O=C(O)COc1ccccc1C=NNc1ccc([N+](=O)[O-])cc1S(=O)(=O)Nc1ccc(Cl)cc1`, the half-inhibitory concentration (IC50) in [13] is 10.6 µM (active); in test [14], 12.2 µM (active); in test [15], 10.8 µM (active); in test [16], 12.5 µM (active).
For `O=C(Nc1ccccc1Cl)c1ccc(OCc2ccccc2)cc1`, the IC50 in test [8], in test [9], in [10] and in test [11] was > 99 µM (inactive) in each case.
As for `COc1cc(C(=O)Nc2ccccc2Cl)ccc1OCc1ccc(Cl)cc1`, the IC50 in [8], in test [9], in test [10] and in test [11] was > 99 µM (inactive) in each case.
With `O=C(O/N=C1/CCSc2ccccc21)c1ccccc1`, the IC50 was 16 µM (active) in test [13] and 13.2 µM (active) in test [14].
